Source: patent US6709873B1, “Method for production of antibodies to specific sites of rapamycin” (Isodiagnostika Inc., priority 1997, dated 2004)

Columns and labels:
[1] = system: Rabbit #1 polyclonal antibody (Rapa-42-DVS-KLH immunogen); experiment: Inhibition ELISA of rabbit #1 polyclonal serum; type: binding; set-up: concentration or dose not given beside the values; conditions: Rapa antigen coated ELISA plate
Experimental: (§1) Inhibition ELISA Protocol
(§2) 1. Use Falcon® Pro-bind™ inununoplates.
(§3) 2. Dilute coating antigen to 1 μg/mL in carbonate-bicarbonate buffer.
(§4) Add 100 μL per well and incubate overnight at 4° C.
(§5) 3. On the same day prepare inhibiting antigen tubes. Aliquot antibodies into glass test tubes. Prepare appropriate antigen concentration in ethanol and add to aliquoted antibody at 10 μL ethanol solution/250 μL antibody.
(§6) Vortex tubes and incubate overnight at 4° C.
(§7) 4. Shake out wells and wash 3× with 200 μL PBS/0.05% TWEEN™ (polyoxyethylene-sorbitol) (v/v) per well.
(§8) 5. Add 200 μL blocking buffer per well (PBS/2% BSA (w/v)).
(§9) Incubate 60 min at room temperature.
(§10) 7. Transfer contents of inhibition tubes to antigen-coated plate, 100 μL per well. Incubate 60 min at 37° C.
(§11) 9. […] Add 100 μL per well and incubate at 37° C. for 60 min.
(§12) 11. […] Add 100 μL per well and incubate in the dark at room temperature. Absorbance can be read at 405 nm at approximately 15-min intervals.

[2] = system: Chicken polyclonal antibody (IgY, Rapa-42-DVS-KLH immunogen); experiment: Inhibition ELISA of chicken IgY prep; type: binding; set-up: concentration or dose not given beside the values; conditions: Rapa antigen coated ELISA plate
Experimental: as §1, §2, §3, §4, §5, §6, §7, §8, §9, §10, §11, §12

MoAb R-1-1 = experiment: Inhibition ELISA of MoAb R-1-1; type: binding, mouse; set-up: concentration or dose not given beside the values; conditions: tissue culture supernatant
Experimental: as §1, §2, §3, §4, §5, §6, §7, §8, §9, §10, §11, §12
(§13) To further characterize the reactivity of monoclonal antibodies from various clones, inhibition ELISA were performed.

MoAb R-1-5 = experiment: Inhibition ELISA of MoAb R-1-5; type: binding, mouse; set-up: concentration or dose not given beside the values; conditions: tissue culture supernatant
Experimental: as §1, §2, §3, §4, §5, §6, §7, §8, §9, §10, §11, §12, §13

MoAb R-2-2 = experiment: Inhibition ELISA of MoAb R-2-2; type: binding, mouse; set-up: concentration or dose not given beside the values; conditions: tissue culture supernatant
Experimental: as §1, §2, §3, §4, §5, §6, §7, §8, §9, §10, §11, §12, §13

MoAb R-3-1 = experiment: Inhibition ELISA of MoAb R-3-1; type: binding, mouse; set-up: concentration or dose not given beside the values; conditions: tissue culture supernatant
Experimental: as §1, §2, §3, §4, §5, §6, §7, §8, §9, §10, §11, §12, §13

[3] = system: Mouse polyclonal antibody Rapa-DVS #7; experiment: Inhibition ELISA of mouse polyclonal serum Rapa-DVS #7; type: binding; set-up: concentration or dose not given beside the values
Experimental: as §1, §2, §3, §4, §5, §6, §7, §8, §9, §10, §11, §12

[4] = system: Mouse polyclonal antibody Rapa-DVS #9; experiment: Inhibition ELISA of mouse polyclonal serum Rapa-DVS #9; type: binding; set-up: concentration or dose not given beside the values
Experimental: as §1, §2, §3, §4, §5, §6, §7, §8, §9, §10, §11, §12

MoAb R-4-1 = experiment: Inhibition ELISA of MoAb R-4-1; type: binding, mouse; conditions: for Percent inhibition of MoAb R-4-1: tissue culture supernatant
Experimental: as §1, §2, §3, §4, §5, §6, §7, §8, §9, §10, §11, §12

MoAb R-4-7 = experiment: Inhibition ELISA of MoAb R-4-7; type: binding, mouse; conditions: for Percent inhibition of MoAb R-4-7: tissue culture supernatant
Experimental: as §1, §2, §3, §4, §5, §6, §7, §8, §9, §10, §11, §12

MoAb R-5-3 = experiment: Inhibition ELISA of MoAb R-5-3; type: binding, mouse; conditions: for Percent inhibition of MoAb R-5-3: tissue culture supernatant
Experimental: as §1, §2, §3, §4, §5, §6, §7, §8, §9, §10, §11, §12

[5] = system: Mouse polyclonal antibody Rapa-27 #12 (Rapa-27-ox-DVS-KLH immunogen); experiment: Inhibition ELISA of mouse polyclonal serum Rapa-27 #12; set-up: concentration or dose not given beside the values; conditions: binding to Rapa-27-HSA
Experimental: as §1, §2, §3, §4, §5, §6, §7, §8, §9, §10, §11, §12

MoAb R-6-2 = experiment: Inhibition ELISA of MoAb R-6-2; type: binding, mouse
Experimental: as §1, §2, §3, §4, §5, §6, §7, §8, §9, §10, §11, §12

MoAb R-6-3 = experiment: Inhibition ELISA of MoAb R-6-3; type: binding, mouse
Experimental: as §1, §2, §3, §4, §5, §6, §7, §8, §9, §10, §11, §12

lymphocytes = experiment: In vitro mixed lymphocyte reaction (MLR) assay, two-way lymphocyte proliferation; type: cell-based; conditions: 3H-thymidine incorporation
Source text: The MLR assay is useful for identifying rapamycin metabolites with biological (immunosupressive) activity and to quantify this activity relative to the immunosuppressive activity of the parent rapamycin molecule.
An example of a two-way lymphocyte proliferation assay procedure useful for this purpose is as follows:
1. Collect blood from two individuals (20 mls each) and isolate lymphocytes using Ficoll-Paque™ (polysucrose and sodium diatrizoate) (Pharmacia Biotech).
2. Count lymphocytes at 1:10 dilution in 2% acetic acid (v/v).
3. Prepare 10 mls of each lymphocyte populations (A+B) at 1×10^6 cells/ml in DMEM/20% FCS (v/v).
4. Set up a 96 well sterile tissue culture plate, flat bottom (Sarstedt, cat # 83.1835). To each well add:
5. Aliquot 100 μl per well lymphocyte population A
6. Aliquot 100 μl per well lymphocyte population B
7. Aliquot 20 μl per well of drug (rapamycin and rapamycin metabolites M1-5) serially diluted 0 to 1000 μg/L in triplicate in DMEM with no supplements.
8. […]
10. […] Wash cells 3× with 1.0-ml sterile distilled water.
Note: All procedures are done using sterile techniques in a biological flow hood.
11. Place filters in Scintilation vials and add 1.5 mls of ScintiSafe Plus™ 50% scintillation fluid (Fisher, cat #SX-25-5).
12. Measure the amount of radioactivity incorporated in the lymphocytes using a beta counter (Micromedic System Inc., TAURUS™ Automatic Liquid Scintillation Counter) for 1.0 minute.
13. Calculate averages and standard deviations for each drug and express results as: [formula]

[6] = Relative concentrations of Rapa metabolites in pooled whole blood patient samples (LC/MS); type: in vivo; conditions: Rapa = 1
Source text: No individual metabolite is found at a concentration greater than 20% of the Rapa parent level.

Row | Compound | Percent inhibition of Rabbit #1 polyclonal antibody [1] [%] | Percent inhibition of Chicken polyclonal antibody [2] [%] | Percent inhibition of MoAb R-1-1 (MoAb R-1-1) [%] | Percent inhibition of MoAb R-1-5 (MoAb R-1-5) [%] | Percent inhibition of MoAb R-2-2 (MoAb R-2-2) [%] | Percent inhibition of MoAb R-3-1 (MoAb R-3-1) [%] | Percent inhibition of mouse polyclonal antibody Rapa-DVS #7 [3] [%] | Percent inhibition of mouse polyclonal antibody Rapa-DVS #9 [4] [%] | Percent inhibition of MoAb R-4-1 (MoAb R-4-1) [%] | Percent inhibition of MoAb R-4-7 (MoAb R-4-7) [%] | Percent inhibition of MoAb R-5-3 (MoAb R-5-3) [%] | Percent inhibition of mouse polyclonal antibody Rapa-27 #12 [5] [%] | other results
1 | C=CCC1C=C(C)CC(C)CC(OC)C2OC(O)(C(=O)C(=O)N3CCCCC3C(=O)OC(C(C)=CC3CCC(O)C(OC)C3)C(C)C(O)CC1=O)C(C)CC2O (centres unmarked) [FK met 1, 13-O-Demethyl] | 0 | 0 | 46 | 24 | 19 | 0 | – | – | – | – | – | – | –
2 | C=CCC1C=C(C)CC(C)CC(O)C2OC(O)(C(=O)C(=O)N3CCCCC3C(=O)OC(C(C)=CC3CCC(O)C(OC)C3)C(C)C(O)CC1=O)C(C)CC2OC (centres unmarked) [FK met 2, 15-O-Demethyl] | 0 | 0 | 57 | 36 | 16 | 0 | – | – | – | – | – | – | –
3 | C=CCC1C=C(C)CC(C)CC(OC)C2OC(O)(C(=O)C(=O)N3CCCCC3C(=O)OC(C(C)=CC3CCC(O)C(O)C3)C(C)C(O)CC1=O)C(C)CC2OC (centres unmarked) [FK met 3, 31-O-Demethyl] | 0 | 0 | 45 | 26 | 9 | 0 | – | – | – | – | – | – | –
4 | C=CCC1C=C(C)CC(C)CC(OC)C2OC(O)(C(=O)C(=O)N3CCCCC3C(=O)OC(C(C)=CC3CCC(O)C(O)C3)C(C)C(O)CC1=O)C(C)CC2O (centres unmarked) [FK met 4, 13,3 1-Didemethyl] | 0 | 13 | 53 | 38 | 13 | 0 | – | – | – | – | – | – | –
5 | C=CCC1C=C(C)CC(C)CC(O)C2OC(O)(C(=O)C(=O)N3CCCCC3C(=O)OC(C(C)=CC3CCC(O)C(O)C3)C(C)C(O)CC1=O)C(C)CC2OC (centres unmarked) [FK met 5, 15,3 1-O-Didemethyl] | 0 | 0 | 46 | 26 | 13 | 0 | – | – | – | – | – | – | –
6 | C=CC[C@@H]1/C=C(\C)C[C@H](C)C[C@H](OC)[C@H]2O[C@@](O)(C(=O)C(=O)N3CCCC[C@H]3C(=O)O[C@H](/C(C)=C/[C@@H]3CC[C@@H](O)[C@H](OC)C3)[C@H](C)[C@@H](O)CC1=O)[C@H](C)C[C@@H]2OC [FK, FK-506] | 0 | 0 | 43 | 33 | 16 | 1 | 5.6 | 13.0 | 8 | 4 | 4 | 11 | Percent inhibition of MoAb R-6-2 (MoAb R-6-2): 64%; Percent inhibition of MoAb R-6-3 (MoAb R-6-3): 53%
7 | CO[C@@H]1C[C@H](C[C@@H](C)[C@@H]2CC(=O)[C@H](C)/C=C(\C)[C@@H](O)[C@@H](OC)C(=O)[C@H](C)C[C@H](C)/C=C/C=C/C=C(\C)[C@@H](O)C[C@@H]3CC[C@@H](C)[C@@](O)(O3)C(=O)C(=O)N3CCCC[C@H]3C(=O)O2)CC[C@H]1O [M3, 7-O-Demethyl Rapamycin] | 15 | 35 | 32 | 56 | 26 | 92 | 28.3 | 30.8 | 85 | 67 | 37 | – | Percent inhibition of mouse polyclonal antibody Rapa-27 #12 ([5]; listed as Met 3): 43%; Percent inhibition of mouse polyclonal antibody Rapa-27 #12 ([5]; listed as metabolite # 3): 42%; Mixed Lymphocyte Reaction IC50, Mean (lymphocytes): 2.85 µg/L; Relative Concentration in whole blood [6]: 0.10
8 | CO[C@H]1C[C@@H]2CC[C@@H](C)[C@@](O)(O2)C(=O)C(=O)N2CCCC[C@H]2C(=O)O[C@H]([C@H](C)C[C@@H]2CC[C@@H](O)[C@H](O)C2)CC(=O)[C@H](C)/C=C(\C)[C@@H](O)[C@@H](OC)C(=O)[C@H](C)C[C@H](C)/C=C/C=C/C=C/1C [M4, 41-O-Demethyl Rapamycin] | 28 | 18 | 30 | 57 | 71 | 96 | 40.1 | 28.6 | 82 | 54 | 47 | 37 | Mixed Lymphocyte Reaction IC50, Mean (lymphocytes): 5.9 µg/L; Relative Concentration in whole blood [6]: 0.10
9 | CO[C@H]1C[C@@H]2CC[C@@H](C)[C@@](O)(O2)C(=O)C(=O)N2CCCC[C@H]2C(=O)O[C@H]([C@H](C)C[C@@H]2CC[C@@H](O)[C@H](O)C2)CC(=O)[C@H](C)/C=C(\C)[C@@H](O)[C@@H](O)C(=O)[C@H](C)C[C@H](C)/C=C/C=C/C=C/1C [M5, 32,41-Demethyl Rapamycin] | 16 | 35 | 29 | 44 | 10 | 94 | 39.8 | 37.3 | 88 | 87 | 46 | 0 | Mixed Lymphocyte Reaction IC50, Mean (lymphocytes): 4.67 µg/L; Relative Concentration in whole blood [6]: 0.02
10 | CO[C@H]1C[C@@H]2CC[C@@H](C)[C@@](O)(O2)C(=O)C(=O)N2CCCC[C@H]2C(=O)O[C@H]([C@H](C)C[C@@H]2CC[C@@H](OCCO)[C@H](OC)C2)CC(=O)[C@H](C)/C=C(\C)[C@@H](O)[C@@H](OC)C(=O)[C@H](C)C[C@H](C)/C=C/C=C/C=C/1C [RAD] | – | – | – | – | – | – | – | – | – | – | – | – | Inhibition of MoAb R-4-1 (in words) (MoAb R-4-1; purified MoAb, increasing concentrations of Rapa or RAD, FIG. 3A): inhibited; Inhibition of MoAb R-4-7 (in words) (MoAb R-4-7): inhibited; Inhibition of MoAb R-5-3 (in words) (MoAb R-5-3; purified MoAb, increasing concentrations of Rapa or RAD, FIG. 3B): inhibited; Percent inhibition of MoAb R-6-2 (MoAb R-6-2): 70%; Percent inhibition of MoAb R-6-3 (MoAb R-6-3): 58%
11 | keyhole limpet hemocyanin [KLH] | 0 | 0 | 3 | 10 | 16 | 0 | 7.8 | 12.5 | – | – | – | 0 | –
